Values quoted from earlier work as cited in PMC9762682, “Tocotrienols: Exciting Biological and Pharmacological Properties of Tocotrienols and Naturally Occurring Compounds, Part II” (Annals of clinical case reports, 2022).
Like-named read-outs stand apart in the source and are kept apart here. Marks after values point to notes of the source that are not given here.

Columns and labels:
[1] = parameters: method as in ref 14 = [14]; PMID 27493840; doi:10.4172/2155-9880.1000434; 14. Qureshi AA , Khan DA , Saleem S , Silswal N , Trias AM , Tan B , Pharmacokinetics and bioavailability of Annatto δ-tocotrienol in healthy fed subjects . J Clin Exp Cardiol . 2015; 6 : 11 . 10.417; conditions: for time of appearance in the plasma: after δ-tocotrienol administration to well-fed subjects; for Elimination of Half-life time (t1/2) / Elimination rate constant (ke) / Plasma Peak Concentration (Cmax) / Time to achieve plasma peak (Tmax): healthy fed subjects
[2] = parameters: method as in ref 16 = [16]; PMID 27493840; doi:10.4172/2155-9880.1000434; 16. Qureshi AA , Khan DA , Silswal N , Saleem S , Qureshi N . Evaluation of pharmacokinetics and bioavailability of higher doses of δ-tocotrienol in healthy fed humans . J Clin Exp Cardiol . 2016; 7
[3] = tested on: α-Tocopherol Transfer Protein (α-TTP); parameters: method as in PMID 11271854, PMID 8632210
[4] = plasma tocol after single 125 mg δ-tocotrienol dose
[5] = plasma tocol after single 250 mg δ-tocotrienol dose
[6] = plasma tocol after single 500 mg δ-tocotrienol dose
[7] = 0 Hr., single dose 750 mg δ-tocotrienol
[8] = 0 Hr., single dose 1000 mg δ-tocotrienol
[9] = 1 hr., single dose 750 mg δ-tocotrienol
[10] = 1 hr., single dose 1000 mg δ-tocotrienol
[11] = 2 hr., single dose 750 mg δ-tocotrienol
[12] = 2 hr., single dose 1000 mg δ-tocotrienol
[13] = 4 hr., single dose 750 mg δ-tocotrienol
[14] = 4 hr., single dose 1000 mg δ-tocotrienol
[15] = 6 hr., single dose 750 mg δ-tocotrienol
[16] = 6 hr., single dose 1000 mg δ-tocotrienol
[17] = 8 hr., single dose 750 mg δ-tocotrienol
[18] = 8 hr., single dose 1000 mg δ-tocotrienol
[19] = plasma tocol after single dose 750 mg δ-tocotrienol
[20] = plasma tocol after single dose 1000 mg δ-tocotrienol
[21] = single dose 1000 mg δ-tocotrienol

Structure (SMILES)	time of appearance in the plasma [1] [h]	Elimination of Half-life time (t1/2) [1, 4]	Elimination rate constant (ke) [1, 4]	Plasma Peak Concentration (Cmax) [1, 4]	Time to achieve plasma peak (Tmax) [1, 4] [h]	Elimination of Half-life time (t1/2) [1, 5]	Elimination rate constant (ke) [1, 5]	Plasma Peak Concentration (Cmax) [1, 5]	Time to achieve plasma peak (Tmax) [1, 5] [h]	Elimination of Half-life time (t1/2) [1, 6]	Elimination rate constant (ke) [1, 6]	Plasma Peak Concentration (Cmax) [1, 6]	Time to achieve plasma peak (Tmax) [1, 6] [h]	plasma tocol level [2, 7] [ng/mL]	plasma tocol level [2, 8] [ng/mL]	plasma tocol level [2, 9] [ng/mL]	plasma tocol level [2, 10] [ng/mL]	plasma tocol level [2, 11] [ng/mL]	plasma tocol level [2, 12] [ng/mL]	plasma tocol level [2, 13] [ng/mL]	further results
CC(C)=CCC/C(C)=C/CC/C(C)=C/CC[C@]1(C)CCc2c(C)c(O)c(C)c(C)c2O1 [α-Tocotrienol]	> 2	2.62 ± 0.81^a h	1.234 ± 0.211^a h-1	139.91 ± 11.03^a ng/mL	2.73 ± 0.65	2.89 ± 0.84^a h	0.201 ± 0.050^b h-1	204.91 ± 9.47^b ng/mL	3.00	3.71 ± 0.29^b h	0.214 ± 0.009^b h-1	290.09 ± 9.84^c ng/mL	3.00	241 ± 16	292 ± 39	268 ± 13	653 ± 42	278 ± 7	807 ± 49	293 ± 11	plasma tocol level [2, 14]: 1125 ± 35 ng/mL; plasma tocol level [2, 15]: 223 ± 5 ng/mL; plasma tocol level [2, 16]: 375 ± 49 ng/mL; plasma tocol level [2, 17]: 86 ± 16 ng/mL; plasma tocol level [2, 18]: 309 ± 17 ng/mL; Elimination of Half-life time (t1/2) [2, 19]: 2.21 ± 0.18^a h; Elimination rate constant (ke) [2, 19]: 0.315 ± 0.188^a h-1; Elimination of Half-life time (t1/2) [2, 20]: 2.15 ± 0.13^b h; Time to achieve plasma peak (Tmax) [2, 20]: 4.00^a h; Total tocols (sum of 0-8 h) ([2]; single dose 750 mg δ-tocotrienol): 1389 ng/mL; Total tocols (sum of 0-8 h) [2, 21]: 3561 ng/mL; α-TTP mediated secretion from the liver into the circulatory system (affinity with α-TTP) [3]: 12%
Cc1c(C)c2c(c(C)c1O)CC[C@@](C)(CCC[C@H](C)CCC[C@H](C)CCCC(C)C)O2 [α-Tocopherol]	> 2	4.99 ± 069^a h	0.237 ± 0.217^a h-1	1822.00 ± 48.24^a ng/mL	6.00	4.91 ± 0.84^a h	0.084 ± 0.008^a,b h-1	1931.00 ± 92.54^b ng/mL	6.00	3.58 ± 0.67^a h	0.081 ± 0.006^b h-1	2188 ± 147.61^c ng/mL	5.46 ± 0.93	1644 ± 59	1817 ± 80	2080 ± 68	2025 ± 66	2002 ± 91	2115 ± 92	2231 ± 35	Tmax ([2]; 750 mg and 1000 mg doses of δ-tocotrienol): 6 h; plasma tocol level [2, 14]: 2228 ± 22 ng/mL; plasma tocol level [2, 15]: 2754 ± 84 ng/mL; plasma tocol level [2, 16]: 2915 ± 35 ng/mL; plasma tocol level [2, 17]: 2406 ± 51 ng/mL; plasma tocol level [2, 18]: 2139 ± 61 ng/mL; Total tocols (sum of 0-8 h) [2, 21]: 13239 ng/mL; α-TTP mediated secretion from the liver into the circulatory system (affinity with α-TTP) [3]: 100%
